Measured values as given in the supplement of paper PMC9663587.

Key:
[1] = compound: CCN1CCN(Cc2ccc(Nc3ncc(F)c(-c4cc(F)c5nc(C)n(C(C)C)c5c4)n3)nc2)CC1; assay: increase in dead-cell fraction, 72 h; higher = more death;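 further: breast cancer cell lines in 384-well plates, stained with Hoechst plus LIVE/DEAD far red dye and imaged, cells above an LDR intensity threshold counted dead, Hoechst-negative corpses included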
Flavopiridol [2] = compound: T1, CN1CC[C@H](c2c(O)cc(O)c3c(=O)cc(-c4ccccc4Cl)oc23)[C@H](O)C1 [Flavopiridol]; assay: as above
YKL-5-124 = compound: C=CC(=O)Nc1ccc(C(=O)Nc2[nH]nc3c2CN(C(=O)N[C@H](CN(C)C)c2ccccc2)C3(C)C)cc1 [YKL-5-124]; assay: GR value, 72 h; higher = faster growth (1 = untreated, <0 = killing);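 further: breast cancer and non-malignant breast epithelial lines, nine half-log doses, viable cells counted by Hoechst and LIVE/DEAD dye imaging versus time-zero plates and DMSO controls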
BSJ-03-123 = compound: CC(=O)c1c(C)c2cnc(Nc3ccc(N4CCN(CCOCCOCCOCCNC(=O)COc5cccc6c5C(=O)N(C5CCC(=O)NC5=O)C6=O)CC4)cn3)nc2n(C2CCCC2)c1=O [BSJ-03-123]; assay: as above
[3] = compound: CC(=O)c1c(C)c2cnc(Nc3ccc(N4CCNCC4)cn3)nc2n(C2CCCC2)c1=O; assay: as above
[4] = compound: CCN1CCN(Cc2ccc(Nc3ncc(F)c(-c4cc(F)c5nc(C)n(C(C)C)c5c4)n3)nc2)CC1; assay: as above
Neratinib/HKI272 = compound: CCOc1cc2ncc(C#N)c(Nc3ccc(OCc4ccccn4)c(Cl)c3)c2cc1NC(=O)/C=C/CN(C)C [Neratinib/HKI272]; assay: as above
[5] = compound: CCc1cnn2c(NCc3ccc[n+]([O-])c3)cc(N3CCCC[C@H]3CCO)nc12; assay: as above
LEE011/Ribociclib = compound: CN(C)C(=O)c1cc2cnc(Nc3ccc(N4CCNCC4)cn3)nc2n1C1CCCC1 [LEE011/Ribociclib]; assay: as above
THZ531 = compound: CN(C)C/C=C/C(=O)Nc1ccc(C(=O)N2CCC[C@@H](Nc3ncc(Cl)c(-c4c[nH]c5ccccc45)n3)C2)cc1 [THZ531]; assay: as above
THZ1 = compound: CN(C)C/C=C/C(=O)Nc1ccc(C(=O)Nc2cccc(Nc3ncc(Cl)c(-c4c[nH]c5ccccc45)n3)c2)cc1 [THZ1]; assay: as above
Flavopiridol [6] = compound: T1, Flavopiridol; assay: as above

Question: Which “increase in dead-cell fraction” value ([1]; 0.001 µM) does the source give for HCC1954 here?
Answer: -0.0023

Question: What about the “increase in dead-cell fraction” value ([1]; 0.003162 µM) of the same cell line?
Answer: -0.0166

Question: What about the “increase in dead-cell fraction” value ([1]; 0.01 µM) of the same cell line?
Answer: -0.0193

Question: And the “increase in dead-cell fraction” value ([1]; 0.03162 µM)?
Answer: -0.0017

Question: And the “increase in dead-cell fraction” value ([1]; 0.1 µM)?
Answer: -0.0058

Question: What about the “increase in dead-cell fraction” value ([1]; 0.3162 µM) of the same cell line?
Answer: -0.0054

Question: What about the “increase in dead-cell fraction” value ([1]; 1 µM) of the same cell line?
Answer: 0.0303

Question: What about the “increase in dead-cell fraction” value ([1]; 3.162 µM) of the same cell line?
Answer: 0.11

Question: And the “increase in dead-cell fraction” value ([1]; 10 µM)?
Answer: 0.683

Question: What about the “increase in dead-cell fraction” value (Flavopiridol [2]; 0.0001 µM) of the same cell line?
Answer: 0.0057

Question: What about the “increase in dead-cell fraction” value (Flavopiridol [2]; 0.0003162 µM) of the same cell line?
Answer: 0.0003

Question: And the “increase in dead-cell fraction” value (Flavopiridol [2]; 0.001 µM)?
Answer: 0.0047

Question: What about the “increase in dead-cell fraction” value (Flavopiridol [2]; 0.003162 µM) of the same cell line?
Answer: 0.0096

Question: What about the “increase in dead-cell fraction” value (Flavopiridol [2]; 0.01 µM) of the same cell line?
Answer: 0.0025

Question: What about the “increase in dead-cell fraction” value (Flavopiridol [2]; 0.03162 µM) of the same cell line?
Answer: 0.0079

Question: And the “increase in dead-cell fraction” value (Flavopiridol [2]; 0.1 µM)?
Answer: 0.03

Question: What about the “increase in dead-cell fraction” value (Flavopiridol [2]; 0.3162 µM) of the same cell line?
Answer: 0.143

Question: And the “increase in dead-cell fraction” value (Flavopiridol [2]; 1 µM)?
Answer: 0.733

Question: And the GR value (YKL-5-124; 0.001 µM)?
Answer: 0.224 GR

Question: What about the GR value (YKL-5-124; 0.003162 µM) of the same cell line?
Answer: 0.154 GR

Question: What about the GR value (YKL-5-124; 0.01 µM) of the same cell line?
Answer: 0.0574 GR

Question: And the GR value (YKL-5-124; 0.03162 µM)?
Answer: 0.0823 GR

Question: And the GR value (YKL-5-124; 0.1 µM)?
Answer: -0.0214 GR

Question: What about the GR value (YKL-5-124; 0.3162 µM) of the same cell line?
Answer: 0.0013 GR

Question: What about the GR value (YKL-5-124; 1 µM) of the same cell line?
Answer: -0.0774 GR

Question: What about the GR value (YKL-5-124; 3.162 µM) of the same cell line?
Answer: -0.0189 GR

Question: What about the GR value (YKL-5-124; 10 µM) of the same cell line?
Answer: -0.143 GR

Question: What about the GR value (BSJ-03-123; 0.001 µM) of the same cell line?
Answer: 0.886 GR

Question: And the GR value (BSJ-03-123; 0.003162 µM)?
Answer: 0.859 GR

Question: What about the GR value (BSJ-03-123; 0.01 µM) of the same cell line?
Answer: 0.812 GR

Question: What about the GR value (BSJ-03-123; 0.03162 µM) of the same cell line?
Answer: 0.745 GR

Question: And the GR value (BSJ-03-123; 0.1 µM)?
Answer: 0.689 GR

Question: And the GR value (BSJ-03-123; 0.3162 µM)?
Answer: 0.746 GR

Question: What about the GR value (BSJ-03-123; 1 µM) of the same cell line?
Answer: 0.558 GR

Question: And the GR value (BSJ-03-123; 3.162 µM)?
Answer: 0.473 GR

Question: And the GR value (BSJ-03-123; 10 µM)?
Answer: -0.0177 GR

Question: What about the GR value ([3]; 0.0003162 µM) of the same cell line?
Answer: 1.14 GR

Question: And the GR value ([3]; 0.001 µM)?
Answer: 1.02 GR

Question: What about the GR value ([3]; 0.003162 µM) of the same cell line?
Answer: 1.07 GR

Question: And the GR value ([3]; 0.01 µM)?
Answer: 0.905 GR

Question: What about the GR value ([3]; 0.03162 µM) of the same cell line?
Answer: 0.863 GR

Question: What about the GR value ([3]; 0.1 µM) of the same cell line?
Answer: 0.733 GR

Question: What about the GR value ([3]; 0.3162 µM) of the same cell line?
Answer: 0.611 GR

Question: What about the GR value ([3]; 1 µM) of the same cell line?
Answer: 0.57 GR

Question: And the GR value ([3]; 3.162 µM)?
Answer: 0.523 GR

Question: What about the GR value ([4]; 0.001 µM) of the same cell line?
Answer: 1.01 GR

Question: And the GR value ([4]; 0.003162 µM)?
Answer: 0.941 GR

Question: And the GR value ([4]; 0.01 µM)?
Answer: 0.844 GR

Question: And the GR value ([4]; 0.03162 µM)?
Answer: 0.698 GR

Question: What about the GR value ([4]; 0.1 µM) of the same cell line?
Answer: 0.584 GR

Question: What about the GR value ([4]; 0.3162 µM) of the same cell line?
Answer: 0.503 GR

Question: What about the GR value ([4]; 1 µM) of the same cell line?
Answer: 0.36 GR

Question: And the GR value ([4]; 3.162 µM)?
Answer: 0.193 GR

Question: What about the GR value ([4]; 10 µM) of the same cell line?
Answer: -0.5 GR

Question: And the GR value (Neratinib/HKI272; 0.0003162 µM)?
Answer: 1.04 GR

Question: And the GR value (Neratinib/HKI272; 0.001 µM)?
Answer: 1.05 GR

Question: What about the GR value (Neratinib/HKI272; 0.003162 µM) of the same cell line?
Answer: 0.938 GR

Question: What about the GR value (Neratinib/HKI272; 0.01 µM) of the same cell line?
Answer: 0.859 GR

Question: What about the GR value (Neratinib/HKI272; 0.03162 µM) of the same cell line?
Answer: 0.533 GR

Question: What about the GR value (Neratinib/HKI272; 0.1 µM) of the same cell line?
Answer: 0.389 GR

Question: What about the GR value (Neratinib/HKI272; 0.3162 µM) of the same cell line?
Answer: 0.27 GR

Question: And the GR value (Neratinib/HKI272; 1 µM)?
Answer: 0.119 GR

Question: What about the GR value (Neratinib/HKI272; 3.162 µM) of the same cell line?
Answer: -0.0858 GR

Question: And the GR value ([5]; 0.0001 µM)?
Answer: 0.941 GR

Question: And the GR value ([5]; 0.0003162 µM)?
Answer: 1.04 GR

Question: What about the GR value ([5]; 0.001 µM) of the same cell line?
Answer: 1.05 GR

Question: What about the GR value ([5]; 0.003162 µM) of the same cell line?
Answer: 1.12 GR

Question: And the GR value ([5]; 0.01 µM)?
Answer: 0.69 GR

Question: And the GR value ([5]; 0.03162 µM)?
Answer: -0.352 GR

Question: What about the GR value ([5]; 0.1 µM) of the same cell line?
Answer: -0.474 GR

Question: And the GR value ([5]; 0.3162 µM)?
Answer: -0.472 GR

Question: What about the GR value ([5]; 1 µM) of the same cell line?
Answer: -0.441 GR

Question: What about the GR value (LEE011/Ribociclib; 0.001 µM) of the same cell line?
Answer: 0.804 GR

Question: And the GR value (LEE011/Ribociclib; 0.003162 µM)?
Answer: 0.771 GR

Question: What about the GR value (LEE011/Ribociclib; 0.01 µM) of the same cell line?
Answer: 0.811 GR

Question: And the GR value (LEE011/Ribociclib; 0.03162 µM)?
Answer: 0.771 GR

Question: What about the GR value (LEE011/Ribociclib; 0.1 µM) of the same cell line?
Answer: 0.655 GR

Question: And the GR value (LEE011/Ribociclib; 0.3162 µM)?
Answer: 0.609 GR

Question: And the GR value (LEE011/Ribociclib; 1 µM)?
Answer: 0.654 GR

Question: And the GR value (LEE011/Ribociclib; 3.162 µM)?
Answer: 0.687 GR

Question: And the GR value (LEE011/Ribociclib; 10 µM)?
Answer: 0.539 GR

Question: What about the GR value (THZ531; 0.0001 µM) of the same cell line?
Answer: 1.04 GR

Question: And the GR value (THZ531; 0.0003162 µM)?
Answer: 1.06 GR

Question: What about the GR value (THZ531; 0.001 µM) of the same cell line?
Answer: 0.921 GR

Question: And the GR value (THZ531; 0.003162 µM)?
Answer: 1.04 GR

Question: What about the GR value (THZ531; 0.01 µM) of the same cell line?
Answer: 1.07 GR

Question: What about the GR value (THZ531; 0.03162 µM) of the same cell line?
Answer: 1.05 GR

Question: And the GR value (THZ531; 0.1 µM)?
Answer: 0.873 GR

Question: And the GR value (THZ531; 0.3162 µM)?
Answer: 0.66 GR

Question: And the GR value (THZ531; 1 µM)?
Answer: -0.297 GR

Question: And the GR value (THZ1; 0.0001 µM)?
Answer: 1.03 GR

Question: What about the GR value (THZ1; 0.0003162 µM) of the same cell line?
Answer: 0.958 GR

Question: What about the GR value (THZ1; 0.001 µM) of the same cell line?
Answer: 1.01 GR

Question: What about the GR value (THZ1; 0.003162 µM) of the same cell line?
Answer: 1 GR

Question: And the GR value (THZ1; 0.01 µM)?
Answer: 0.939 GR

Question: What about the GR value (THZ1; 0.03162 µM) of the same cell line?
Answer: 0.85 GR

Question: What about the GR value (THZ1; 0.1 µM) of the same cell line?
Answer: 0.491 GR

Question: And the GR value (THZ1; 0.3162 µM)?
Answer: -0.0278 GR

Question: What about the GR value (THZ1; 1 µM) of the same cell line?
Answer: -0.507 GR

Question: What about the GR value (Flavopiridol [6]; 0.0001 µM) of the same cell line?
Answer: 1.01 GR

Question: What about the GR value (Flavopiridol [6]; 0.0003162 µM) of the same cell line?
Answer: 0.967 GR

Question: What about the GR value (Flavopiridol [6]; 0.001 µM) of the same cell line?
Answer: 0.962 GR

Question: What about the GR value (Flavopiridol [6]; 0.003162 µM) of the same cell line?
Answer: 0.996 GR

Question: What about the GR value (Flavopiridol [6]; 0.01 µM) of the same cell line?
Answer: 0.907 GR

Question: What about the GR value (Flavopiridol [6]; 0.03162 µM) of the same cell line?
Answer: 0.928 GR

Question: And the GR value (Flavopiridol [6]; 0.1 µM)?
Answer: 0.613 GR

Question: And the GR value (Flavopiridol [6]; 0.3162 µM)?
Answer: 0.0144 GR

Question: And the GR value (Flavopiridol [6]; 1 µM)?
Answer: -0.52 GR
